Values after ≈ are worked out from the molar mass of the structure shown. Starred links: 1 amine or outer side, 2 acyl side, 3 side chain; linkers in the order of their positions; H or OH if unused. Positions of bridges follow the written chain, without caps; N, C: chain ends. Non-standard residues stand in square brackets, D forms with d. Residues, ends and D or L forms follow the SMILES beside them. X1 = N=C(NCCC[C@H](N[*:1])C(=O)[*:2])N[C@@H]1O[C@H](CO)[C@@H](O[C@H]2O[C@H](CO)[C@@H](O[C@H]3O[C@H](CO)[C@@H](O)[C@H](O)[C@H]3O)[C@H](O)[C@H]2O)[C@H](O)[C@H]1O; X2 = CC(=O)N[C@@H]1[C@@H](O)[C@H](O)[C@@H](CO)O[C@H]1NC(=N)NCCC[C@H](N[*:1])C(=O)[*:2]; S5 = C=CCCC[C@](C)(N)C(=O)O
How the values were obtained:
[1] = system: Klebsiella pneumoniae; experiment: Antimicrobial activity against Klebsiella pneumoniae ATCC 13883 assessed as growth inhibition measured after 8 hrs incubation by standard broth dilution assay; type: functional
[2] = system: Staphylococcus aureus; experiment: Antimicrobial activity against methicillin-resistant Staphylococcus aureus ATCC 43300 assessed as growth inhibition measured after 8 hrs incubation by standard broth dilution assay; type: functional
[3] = system: Pseudomonas aeruginosa; experiment: Antimicrobial activity against Pseudomonas aeruginosa ATCC 27853 assessed as growth inhibition measured after 8 hrs incubation by standard broth dilution assay; type: functional
[4] = system: Streptococcus pneumoniae; experiment: Antimicrobial activity against Streptococcus pneumoniae ATCC 49619 assessed as growth inhibition measured after 8 hrs incubation by standard broth dilution assay; type: functional
[5] = Hemolytic activity in BALB/c mouse red blood cells assessed as hemolysis incubated for 1 hrs; type: toxicity, cell-based, Erythrocyte; settings: read-out: HD50

SMILES | MIC [1] | MIC [2] | MIC [3] | MIC [4] | HC50 at 1 h [5]
CC(=O)N[C@@H]1[C@@H](O)[C@H](O)[C@@H](CO)O[C@H]1NC(=N)NCCC[C@H](NC(=O)[C@@H](NC(=O)[C@@H]1CCCN1C(=O)[C@H](CCCCN)NC(=O)[C@H](CCCCN)NC(=O)[C@H](CC(C)C)NC(=O)[C@]1(C)CCC/C=C\CCC[C@](C)(NC(=O)[C@H](CCCCN)NC(=O)[C@]2(C)CCC/C=C\CCC[C@](C)(NC(=O)[C@H](CCCNC(=N)N)NC(=O)[C@H](CCCCN)NC(=O)[C@H](CCCCN)NC(=O)[C@@H](NC(=O)[C@H](CCCNC(=N)N)NC(=O)[C@H](CCCCN)NC(=O)[C@H](CCCCN)NC(C)=O)C(C)C)C(=O)N[C@@H](Cc3ccccc3)C(=O)N[C@@H](CCCCN)C(=O)N[C@@H](CC(C)C)C(=O)N2)C(=O)N[C@@H](Cc2ccc(O)cc2)C(=O)N[C@@H](Cc2c[nH]c3ccccc23)C(=O)N[C@@H](CCCNC(=N)N)C(=O)N1)C(C)C)C(N)=O (Ac-KKRVKKR[S5]FKL[S5]K[S5]YWR[S5]LKKPV[X2]-NH2; staple (Z) 8-12, 14-18) | 2.5 µg/mL (≈ 0.729 µM) | 2.5 µg/mL (≈ 0.729 µM) | 2.6 µg/mL (≈ 0.758 µM) | 2.4 µg/mL (≈ 0.699 µM) | 82.2 µg/mL
CC(=O)N[C@@H](CC(C)C)C(=O)N[C@@H](CCCCN)C(=O)N[C@@H](CCCNC(=N)N)C(=O)N[C@H](C(=O)N[C@@H](Cc1c[nH]c2ccccc12)C(=O)N[C@@H](CCCCN)C(=O)N[C@@H](CCCNC(=N)N)C(=O)N[C@@H](CCCCN)C(=O)N[C@@H](Cc1ccccc1)C(=O)N[C@@H](CCCCN)C(=O)N[C@@H](CC(C)C)C(=O)N[C@@H](CC(C)C)C(=O)N[C@@H](CCCCN)C(=O)N[C@@]1(C)CCC/C=C\CCC[C@@](C)(C(=O)N[C@@H](CC(C)C)C(=O)N[C@@H](CCCCN)C(=O)N[C@@H](CCCCN)C(=O)N2CCC[C@H]2C(=O)N[C@H](C(=O)N[C@@H](CCCNC(=N)N)C(N)=O)C(C)C)NC(=O)[C@H](CCCNC(=N)N)NC(=O)[C@H](Cc2c[nH]c3ccccc23)NC(=O)[C@H](Cc2ccc(O)cc2)NC1=O)C(C)C (Ac-LKRVWKRKFKLLK[S5]YWR[S5]LKKPVR-NH2; staple (Z) 14-18) | 10.1 µg/mL (≈ 3.1 µM) | 10.1 µg/mL (≈ 3.1 µM) | 5 µg/mL (≈ 1.53 µM) | 2.4 µg/mL (≈ 0.736 µM) | 32.3 µg/mL
CC(=O)N[C@@H](CC(C)C)C(=O)N[C@@H](CCCCN)C(=O)N[C@@H](CCCNC(=N)N)C(=O)N[C@H](C(=O)N[C@@H](Cc1c[nH]c2ccccc12)C(=O)N[C@@H](CCCCN)C(=O)N[C@@H](CCCNC(=N)N)C(=O)N[C@H](C(=O)N[C@@H](Cc1ccccc1)C(=O)N[C@@H](CCCCN)C(=O)N[C@@H](CC(C)C)C(=O)N[C@@H](CC(C)C)C(=O)N[C@@H](CCCCN)C(=O)N[C@@]1(C)CCC/C=C\CCC[C@@](C)(C(=O)N[C@@H](CC(C)C)C(=O)N[C@@H](CCCCN)C(=O)N[C@@H](CCCCN)C(=O)N2CCC[C@H]2C(=O)N[C@H](C(=O)N[C@@H](CCCNC(=N)N)C(N)=O)C(C)C)NC(=O)[C@H](CCCNC(=N)N)NC(=O)[C@H](CCCCN)NC(=O)[C@H](Cc2ccc(O)cc2)NC1=O)C(C)C)C(C)C (Ac-LKRVWKRVFKLLK[S5]YKR[S5]LKKPVR-NH2; staple (Z) 14-18) | 38 µg/mL (≈ 12 µM) | 4.9 µg/mL (≈ 1.54 µM) | 5 µg/mL (≈ 1.57 µM) | 4.7 µg/mL (≈ 1.48 µM) | 21 µg/mL
CC(=O)N[C@@H](CCCCN)C(=O)N[C@@H](CCCCN)C(=O)N[C@@H](CCCNC(=N)N)C(=O)N[C@H](C(=O)N[C@@H](Cc1c[nH]c2ccccc12)C(=O)N[C@@H](CCCCN)C(=O)N[C@@H](CCCNC(=N)N)C(=O)N[C@@]1(C)CCC/C=C\CCC[C@@](C)(C(=O)N[C@@H](CCCCN)C(=O)N[C@@]2(C)CCC/C=C\CCC[C@@](C)(C(=O)N[C@@H](CC(C)C)C(=O)N[C@@H](CCCCN)C(=O)N[C@@H](CCCCN)C(=O)N3CCC[C@H]3C(=O)N[C@H](C(=O)N[C@@H](CCCNC(=N)N)C(N)=O)C(C)C)NC(=O)[C@H](CCCNC(=N)N)NC(=O)[C@H](Cc3c[nH]c4ccccc34)NC(=O)[C@H](Cc3ccc(O)cc3)NC2=O)NC(=O)[C@H](CC(C)C)NC(=O)[C@H](CCCCN)NC(=O)[C@H](Cc2ccccc2)NC1=O)C(C)C (Ac-KKRVWKR[S5]FKL[S5]K[S5]YWR[S5]LKKPVR-NH2; staple (Z) 8-12, 14-18) | 4.6 µg/mL (≈ 1.4 µM) | 4.9 µg/mL (≈ 1.49 µM) | 5 µg/mL (≈ 1.52 µM) | 2.4 µg/mL (≈ 0.73 µM) | 15.3 µg/mL
CC(=O)N[C@@H](CC(C)C)C(=O)N[C@@H](CCCCN)C(=O)N[C@@H](CCCNC(=N)N[C@@H]1O[C@H](CO)[C@@H](O[C@H]2O[C@H](CO)[C@@H](O[C@H]3O[C@H](CO)[C@@H](O)[C@H](O)[C@H]3O)[C@H](O)[C@H]2O)[C@H](O)[C@H]1O)C(=O)N[C@H](C(=O)N[C@@H](Cc1c[nH]c2ccccc12)C(=O)N[C@@H](CCCCN)C(=O)N[C@@H](CCCNC(=N)N)C(=O)N[C@H](C(=O)N[C@@H](Cc1ccccc1)C(=O)N[C@@H](CCCCN)C(=O)N[C@@H](CC(C)C)C(=O)N[C@@H](CC(C)C)C(=O)N[C@@H](CCCCN)C(=O)N[C@@H](CCCNC(=N)N)C(=O)N[C@@H](Cc1ccc(O)cc1)C(=O)N[C@@H](Cc1c[nH]c2ccccc12)C(=O)N[C@@H](CCCNC(=N)N)C(=O)N[C@@H](CCC(N)=O)C(=O)N[C@@H](CC(C)C)C(=O)N[C@@H](CCCCN)C(=O)N[C@@H](CCCCN)C(=O)N1CCC[C@H]1C(=O)N[C@H](C(=O)N[C@@H](CCCNC(=N)N)C(N)=O)C(C)C)C(C)C)C(C)C (Ac-LK[X1]VWKRVFKLLKRYWRQLKKPVR-NH2) | 38 µg/mL (≈ 10.1 µM) | 2.5 µg/mL (≈ 0.666 µM) | 5 µg/mL (≈ 1.33 µM) | 16.9 µg/mL (≈ 4.5 µM) | 58.1 µg/mL
CC(=O)N[C@@H](CCCCN)C(=O)N[C@@H](CCCCN)C(=O)N[C@@H](CCCNC(=N)N)C(=O)N[C@H](C(=O)N[C@@H](Cc1c[nH]c2ccccc12)C(=O)N[C@@H](CCCCN)C(=O)N[C@@H](CCCNC(=N)N)C(=O)N[C@@]1(C)CCC/C=C\CCC[C@@](C)(C(=O)N[C@@H](CCCCN)C(=O)N[C@@]2(C)CCC/C=C\CCC[C@@](C)(C(=O)N[C@@H](CC(C)C)C(=O)N[C@@H](CCCCN)C(=O)N[C@@H](CCCCN)C(=O)N3CCC[C@H]3C(=O)N[C@H](C(=O)N[C@@H](CCCNC(=N)N)C(N)=O)C(C)C)NC(=O)[C@H](CCCNC(=N)N)NC(=O)[C@H](CCCCN)NC(=O)[C@H](Cc3ccc(O)cc3)NC2=O)NC(=O)[C@H](CC(C)C)NC(=O)[C@H](CCCCN)NC(=O)[C@H](Cc2ccccc2)NC1=O)C(C)C (Ac-KKRVWKR[S5]FKL[S5]K[S5]YKR[S5]LKKPVR-NH2; staple (Z) 8-12, 14-18) | 2.5 µg/mL (≈ 0.774 µM) | 2.5 µg/mL (≈ 0.774 µM) | 2.6 µg/mL (≈ 0.805 µM) | 4.7 µg/mL (≈ 1.46 µM) | 38.7 µg/mL
CC(=O)N[C@@H](CCCCN)C(=O)N[C@@H](CCCCN)C(=O)N[C@@H](CCCNC(=N)N)C(=O)N[C@H](C(=O)N[C@@H](Cc1c[nH]c2ccccc12)C(=O)N[C@@H](CCCCN)C(=O)N[C@@H](CCCNC(=N)N)C(=O)N[C@H](C(=O)N[C@@H](Cc1ccccc1)C(=O)N[C@@H](CCCCN)C(=O)N[C@@H](CC(C)C)C(=O)N[C@@H](CC(C)C)C(=O)N[C@@H](CCCCN)C(=O)N[C@@]1(C)CCC/C=C\CCC[C@@](C)(C(=O)N[C@@H](CC(C)C)C(=O)N[C@@H](CCCCN)C(=O)N[C@@H](CCCCN)C(=O)N2CCC[C@H]2C(=O)N[C@H](C(=O)N[C@@H](CCCNC(=N)N)C(N)=O)C(C)C)NC(=O)[C@H](CCCNC(=N)N)NC(=O)[C@H](Cc2c[nH]c3ccccc23)NC(=O)[C@H](Cc2ccc(O)cc2)NC1=O)C(C)C)C(C)C (Ac-KKRVWKRVFKLLK[S5]YWR[S5]LKKPVR-NH2; staple (Z) 14-18) | 4.9 µg/mL (≈ 1.51 µM) | 4.9 µg/mL (≈ 1.51 µM) | 2.9 µg/mL (≈ 0.893 µM) | 2.4 µg/mL (≈ 0.739 µM) | 19.2 µg/mL
CC(=O)N[C@@H](CCCCN)C(=O)N[C@@H](CCCCN)C(=O)N[C@@H](CCCNC(=N)N)C(=O)N[C@H](C(=O)N[C@@H](Cc1c[nH]c2ccccc12)C(=O)N[C@@H](CCCCN)C(=O)N[C@@H](CCCNC(=N)N)C(=O)N[C@@]1(C)CCC/C=C\CCC[C@@](C)(C(=O)N[C@@H](CCCCN)C(=O)N[C@@]2(C)CCC/C=C\CCC[C@@](C)(C(=O)N[C@@H](CC(C)C)C(=O)N[C@@H](CCCCN)C(=O)N[C@@H](CCCCN)C(=O)N3CCC[C@H]3C(=O)N[C@H](C(=O)N[C@@H](CCCNC(=N)N)C(N)=O)C(C)C)NC(=O)[C@H](CCCNC(=N)N)NC(=O)[C@H](Cc3c[nH]c4ccccc34)NC(=O)[C@H](CCCCN)NC2=O)NC(=O)[C@H](CC(C)C)NC(=O)[C@H](CCCCN)NC(=O)[C@H](Cc2ccccc2)NC1=O)C(C)C (Ac-KKRVWKR[S5]FKL[S5]K[S5]KWR[S5]LKKPVR-NH2; staple (Z) 8-12, 14-18) | 38 µg/mL (≈ 11.7 µM) | 2.5 µg/mL (≈ 0.769 µM) | 2.6 µg/mL (≈ 0.8 µM) | 4.7 µg/mL (≈ 1.45 µM) | 88.4 µg/mL
CC(=O)N[C@@H](CCCCN)C(=O)N[C@@H](CCCCN)C(=O)N[C@@H](CCCNC(=N)N)C(=O)N[C@H](C(=O)N[C@@H](CCCCN)C(=O)N[C@@H](CCCCN)C(=O)N[C@@H](CCCNC(=N)N)C(=O)N[C@@]1(C)CCC/C=C\CCC[C@@](C)(C(=O)N[C@@H](CCCCN)C(=O)N[C@@]2(C)CCC/C=C\CCC[C@@](C)(C(=O)N[C@@H](CC(C)C)C(=O)N[C@@H](CCCCN)C(=O)N[C@@H](CCCCN)C(=O)N3CCC[C@H]3C(=O)N[C@H](C(=O)N[C@@H](CCCNC(=N)N[C@@H]3O[C@H](CO)[C@@H](O[C@H]4O[C@H](CO)[C@@H](O[C@H]5O[C@H](CO)[C@@H](O)[C@H](O)[C@H]5O)[C@H](O)[C@H]4O)[C@H](O)[C@H]3O)C(N)=O)C(C)C)NC(=O)[C@H](CCCNC(=N)N)NC(=O)[C@H](Cc3c[nH]c4ccccc34)NC(=O)[C@H](Cc3ccc(O)cc3)NC2=O)NC(=O)[C@H](CC(C)C)NC(=O)[C@H](CCCCN)NC(=O)[C@H](Cc2ccccc2)NC1=O)C(C)C (Ac-KKRVKKR[S5]FKL[S5]K[S5]YWR[S5]LKKPV[X1]-NH2; staple (Z) 8-12, 14-18) | 1.1 µg/mL (≈ 0.296 µM) | 1.1 µg/mL (≈ 0.296 µM) | 2.6 µg/mL (≈ 0.7 µM) | 1.1 µg/mL (≈ 0.296 µM) | 80.8 µg/mL
